The values below are quoted from earlier work in patent US20050112093A1, “Combination therapy for HCV infection” (priority 2003, published 2005).

Data set [1] has as its system HCV.
Data set [2] concerns HCV. This is another data set of the same source.
For data set [3] the following is noted: majority of patients, over the course of treatment.

IFN-α: the “patients achieving a sustained virological response (SVR)” value in data set [1] (chronic HCV infection, following six months of therapy) is 20%. In addition, the SVR in data set [1] (treatment naïve patients, IFN-α alone, 6 months, the latter (upper) value representing 48 weeks of treatment) was 6-17%.
With `NC(=O)c1ncn([C@@H]2O[C@H](CO)[C@@H](O)[C@H]2O)n1` [ribavirin, 1-beta-D-ribofuranosyl-1H-1,2,4-triazole-3-carboxamide], the “serum HCV RNA levels” value in data set [2] (ribavirin treatment alone) is “only minimally and transiently decreases serum HCV RNA levels”. In data set [2] (ribavirin used alone, during treatment, return to baseline when treatment is discontinued), the liver enzyme levels entry is “decreases liver enzyme levels in most patients during treatment”. Moreover, the “mean decrease in hemoglobin” value in data set [3] is 2 to 3 g/dL.
